Assay results published in ChEMBL document CHEMBL1201862, “PubChem BioAssay data set” (2004).
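Where inhibition never reached the appropriate level, the endpoint shown equals the highest concentration tested. Otherwise, values were interpolated linearly from a five-concentration, 48-hour dose response in 96-well plates. GI50 is the concentration that inhibits growth by half.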 The source made the active and inactive calls. No stated cut-off is given here; in the data, active = GI50 up to about 1.1 µM and inactive = higher.

Experiments:
Assay in all cases: NCI-60 cell line screen, 48 h
LOX IMVI = test system: LOX IMVI
SK-MEL-5 = test system: SK-MEL-5
HOP-62 = test system: HOP-62
U-251 = test system: U-251
UACC-257 = test system: UACC-257
SR = test system: SR
RXF 393 = test system: RXF 393
SF-295 = test system: SF-295
NCI-H460 = test system: NCI-H460
SF-539 = test system: SF-539
TK-10 = test system: TK-10
OVCAR-3 = test system: OVCAR-3
A549 = test system: A549
RPMI-8226 = test system: RPMI-8226
SK-MEL-2 = test system: SK-MEL-2
OVCAR-5 = test system: OVCAR-5

Row | Compound | GI50 (LOX IMVI) | GI50 (SK-MEL-5) | GI50 (HOP-62) | GI50 (U-251) | GI50 (UACC-257) | GI50 (SR) | GI50 (RXF 393) | GI50 (SF-295) | GI50 (NCI-H460) | GI50 (SF-539) | GI50 (TK-10) | GI50 (OVCAR-3) | GI50 (A549) | GI50 (RPMI-8226) | GI50 (SK-MEL-2) | GI50 (OVCAR-5)
1 | CC(Oc1ccc2c(-c3ccccc3)cc(=O)oc2c1)C(=O)O (centres undefined) | > 100 µM (inactive) | > 100 µM (inactive) | > 100 µM (inactive) | > 100 µM (inactive) | > 100 µM (inactive) | > 100 µM (inactive) | > 100 µM (inactive) | > 100 µM (inactive) | > 100 µM (inactive) | > 100 µM (inactive) | > 100 µM (inactive) | > 100 µM (inactive) | > 100 µM (inactive) | – | – | –
2 | O=c1ccn([C@@H]2C[C@H](CO)C[S+]([O-])C2)c(=O)[nH]1 (some centres undefined) | > 100 µM (inactive) | > 100 µM (inactive) | > 100 µM (inactive) | > 100 µM (inactive) | > 100 µM (inactive) | – | – | > 100 µM (inactive) | > 100 µM (inactive) | > 100 µM (inactive) | > 100 µM (inactive) | > 100 µM (inactive) | > 100 µM (inactive) | > 100 µM (inactive) | > 100 µM (inactive) | –
3 | C=CC1(NS(=O)(=O)c2ccc(C)cc2)CCC(C(C)(C)C)CC1 (centres undefined) | – | > 100 µM (inactive) | 57.7 µM (inactive) | 35.6 µM (inactive) | > 100 µM (inactive) | 56 µM (inactive) | 8.97 µM (inactive) | – | > 100 µM (inactive) | 64 µM (inactive) | 88.5 µM (inactive) | 21.6 µM (inactive) | 80.9 µM (inactive) | 17.5 µM (inactive) | 60.7 µM (inactive) | –
4 | NC(=O)CC(N/C=C1/N=C(c2ccccc2)OC1=O)C(=O)O (centres undefined) | > 100 µM (inactive) | > 100 µM (inactive) | > 100 µM (inactive) | > 100 µM (inactive) | > 100 µM (inactive) | – | > 100 µM (inactive) | > 100 µM (inactive) | > 100 µM (inactive) | > 100 µM (inactive) | > 100 µM (inactive) | > 100 µM (inactive) | > 100 µM (inactive) | > 100 µM (inactive) | > 100 µM (inactive) | > 100 µM (inactive)
5 | COc1cc([C@@H]2c3cc4c(cc3C(N)C3COC(=O)[C@@H]32)OCO4)cc(OC)c1O (some centres undefined) | 0.241 µM (active) | 0.244 µM (active) | 2.88 µM (inactive) | – | 0.232 µM (active) | 0.0857 µM (active) | 0.049 µM (active) | 0.0624 µM (active) | 0.304 µM (active) | 0.189 µM (active) | 0.401 µM (active) | – | 0.337 µM (active) | 0.277 µM (active) | – | –
6 | COc1ccc(/C=C2\C(=O)N(NC(C)=O)c3ccccc32)cc1 | > 100 µM (inactive) | 46.2 µM (inactive) | 97.3 µM (inactive) | > 100 µM (inactive) | > 100 µM (inactive) | – | – | > 100 µM (inactive) | > 100 µM (inactive) | > 100 µM (inactive) | 46.5 µM (inactive) | 56.4 µM (inactive) | 58.9 µM (inactive) | 37.4 µM (inactive) | > 100 µM (inactive) | > 100 µM (inactive)
7 | CN(CCCCN)c1ccc2c(=O)[nH][nH]c(=O)c2c1 | > 100 µM (inactive) | > 10 µM (inactive) | > 100 µM (inactive) | > 100 µM (inactive) | > 100 µM (inactive) | – | > 100 µM (inactive) | > 100 µM (inactive) | > 100 µM (inactive) | > 100 µM (inactive) | > 100 µM (inactive) | > 100 µM (inactive) | > 100 µM (inactive) | > 100 µM (inactive) | > 100 µM (inactive) | > 100 µM (inactive)
8 | COc1cc2c(cc1O)[C@@]1(Cc3ccc(OC)c(OC)c3)CCC(=O)N1CC2 | > 100 µM (inactive) | > 100 µM (inactive) | > 100 µM (inactive) | – | > 100 µM (inactive) | 61.8 µM (inactive) | > 100 µM (inactive) | > 100 µM (inactive) | > 100 µM (inactive) | > 100 µM (inactive) | > 100 µM (inactive) | > 100 µM (inactive) | > 100 µM (inactive) | > 100 µM (inactive) | – | > 100 µM (inactive)
9 | CN1N=C2NCCNC3=NN(C)/C(=N/CC/N=C/1S2)S3 | > 100 µM (inactive) | > 100 µM (inactive) | > 100 µM (inactive) | > 100 µM (inactive) | > 100 µM (inactive) | > 100 µM (inactive) | > 100 µM (inactive) | > 100 µM (inactive) | > 100 µM (inactive) | > 100 µM (inactive) | – | – | > 100 µM (inactive) | > 100 µM (inactive) | – | > 100 µM (inactive)
10 | CCCCCCCCCCNC(=S)OC | 15.8 µM (inactive) | 23 µM (inactive) | > 100 µM (inactive) | 33.1 µM (inactive) | 23.8 µM (inactive) | 13.7 µM (inactive) | 33.7 µM (inactive) | 55.5 µM (inactive) | > 100 µM (inactive) | 64.7 µM (inactive) | 98.2 µM (inactive) | – | 34.3 µM (inactive) | 13.2 µM (inactive) | – | –
11 | CC1(C)C(c2ccccc2)=NN(O)c2ccccc21 | – | > 100 µM (inactive) | > 100 µM (inactive) | > 100 µM (inactive) | > 100 µM (inactive) | – | > 100 µM (inactive) | > 100 µM (inactive) | > 100 µM (inactive) | > 100 µM (inactive) | > 100 µM (inactive) | > 100 µM (inactive) | > 100 µM (inactive) | > 100 µM (inactive) | > 100 µM (inactive) | > 100 µM (inactive)
12 | C=C[C@@]1(O)CCCC2=C(C(=O)OCC)CC[C@]21C | – | 38.1 µM (inactive) | – | > 100 µM (inactive) | > 100 µM (inactive) | 54.1 µM (inactive) | > 100 µM (inactive) | > 100 µM (inactive) | > 100 µM (inactive) | > 100 µM (inactive) | > 100 µM (inactive) | > 100 µM (inactive) | > 100 µM (inactive) | > 100 µM (inactive) | 90.8 µM (inactive) | > 100 µM (inactive)
13 | Nc1ccccc1Nc1ccccc1C(=O)[O-].Nc1ccccc1Nc1ccccc1C(=O)[O-].[Zn+2] | – | 91.4 µM (inactive) | > 100 µM (inactive) | > 100 µM (inactive) | 33.7 µM (inactive) | – | – | 32.8 µM (inactive) | > 100 µM (inactive) | > 100 µM (inactive) | > 100 µM (inactive) | 23.4 µM (inactive) | > 100 µM (inactive) | > 100 µM (inactive) | 19.8 µM (inactive) | > 100 µM (inactive)
14 | CCOC(=O)Oc1c(OC)cc(C(=O)NC2CCc3cc(OC)c(OC)c(OC)c3-c3ccc(SC)c(=O)cc32)cc1OC (centres undefined) | 0.0466 µM (active) | 0.0456 µM (active) | 0.601 µM (active) | 0.0346 µM (active) | 0.0743 µM (active) | < 0.007 µM (active) | – | 0.145 µM (active) | 0.164 µM (active) | 0.0245 µM (active) | 0.474 µM (active) | 0.0322 µM (active) | 0.428 µM (active) | – | 0.0466 µM (active) | –
